# Laboratory results reported in publication PMC7053198 (Theranostics, 2020).
# Test system: A375Pβ6 cells
# Conditions: A375Pβ6, αvβ6 positive; 72 h treatment, MTT assay; ±SD, n=3
structure (smiles),measurement,value
"COc1cc2c(cc1OCCCCCOc1cc3c(cc1OC)C(=O)N1C=C(C)C[C@H]1C=N3)N=C[C@@H]1CC(C)=CN1C2=O [SG3199, reference compound]",IC50,0.11 ± 0.08 nM
